Source: article PMC2630844, “Characterizing the Anti-HIV Activity of Papuamide A” (Marine Drugs, 2008)
*1 amine or outer side, *2 acyl side, *3 side chain or, on linkers, in order; H or OH if unused. Where a SMILES comes first, the peptide text is derived from it. Bridges are numbered along the chain shown (N, C = ends). Side-chain parts run from the residue outwards. [ ]: non-standard residue; d: D form. The star is where a group is joined. Gln(3S,4R-Me2) = C[C@H]([C@H](N)C(=O)O)[C@@H](C)C(N)=O; dTyr(βR-OMe) = CO[C@H](c1ccc(O)cc1)[C@@H](N)C(=O)O; Biotin = O=C1N[C@H]2[C@H](CS[C@H]2CCCCC(=O)*)N1; X3 = CC(C)[C@@H](O[*:3])[C@H](N[*:1])C(=O)[*:2]; X1 = CCC(C)/C=C(C)/C=C\C(O)C(C)(O)C(=O)*; X2 = CC(N[*:3])[C@H](N[*:1])C(=O)[*:2]; NMeT = CN[C@H](C(=O)O)[C@@H](C)O; Pip = O=C(O)[C@@H]1CCCCN1; Ahx = NCCCCCC(=O)O

Assays:
[1] = test system: HIV-1NL4-3 (X4 tropic virus) entry into HeLa T4+ cells; experiment: Virion based fusion assay (BlaM-Vpr), X4 tropic virus; format: cell-based; conditions: n≥4
[2] = test system: DHIV-3 pseudotype virus expressing X4 tropic envelope (IIINL4), CEM-SS cells; format: cell-based, HIV; conditions: duplicate determinations
[3] = test system: liposomes composed solely of phosphatidylcholine; conditions: cited from earlier work
From the text: (§1) Papuamide B only differs from papuamide A by one methyl group. […] PS is a phospholipid normally present on the inner leaflet of the cell membrane, but during apoptosis the regulation of PS is altered and PS is present on the outer leaflet.

[4] = test system: phosphatidylserine (PS) containing liposomes; conditions: cited from earlier work
From the text: as §1

[5] = test system: HIV-1NL(AD8) (R5 tropic virus) entry into TZM-bl cells; experiment: Virion based fusion assay (BlaM-Vpr), R5 tropic virus
Description: Briefly, production of virus was accomplished by co-transfection of 20 μg of pMM310 (plasmid encoding β-lactamase linked to Vpr, BlaM-Vpr) [56],10 μg pAdVAntage (Invitrogen, Carlsbad, CA); and 60 μg pNL4-3(X4 tropic proviral DNA) [50] or pNL(AD8) (R5 tropic proviral DNA) [51] into 293FT cells using standard calcium phosphate transfection. Virus was collected after 48 hours and titered using the RETROtek p24 ELISA kit (ZeptoMatrix, Buffalo, NY). HeLaT4 or TZM-bl cells, 200μL at a concentration of 1 X 10^5 cells/mL, were plated into 96 well, black walled, flat bottom plates and placed in a 37°C, 5% CO2 humidified incubator overnight for attachment. Medium was aspirated and 200 μL of medium containing virus, at a predetermined p24 concentration of 200 ng/mL, was added with test compounds or vehicle. Cells were incubated at 37°C, 5% CO2 for 2 hours. Virus was aspirated off and cells rinsed twice with room temperature CO2 independent medium (Invitrogen, Carlsbad, CA). Cells were then loaded with CCF2-AM fluorescent substrate (Invitrogen, Carlsbad, CA) according to manufacturer’s protocol. Cells were incubated, protected from light, for 1 hour at room temperature and washed twice with room temperature CO2 independent medium. Next, 200 μL of room temperature CO2 independent medium supplemented with 10% FBS and 2.5mM probenecid (Sigma-Aldrich, St. Louis, MO) was added and the reaction was allowed to develop for 5–7 hours.
When fusion occurs, β-lactamase (BlaM) present in the virus cleaves the CCF2-AM substrate. This cleavage results in a change of the fluorescence emission from green to blue. Images of the cells were taken with a fluorescent microscope equipped with the appropriate filter set, Excitation filter 405±10 nm, Dicroic mirror 425, Emission Filter (blue) 460±20 nm, and Emission Filter (green) 530±15 nm. Using ImageJ, an image software program provided by NIH, the amount of green and blue fluorescence was determined. To quantify the observed fusion, a fluorescence ratio was calculated by dividing the amount of blue fluorescence by the amount of green fluorescence. This value was then normalized to the non-infected control by dividing the calculated values by the average control value.

sCD4 = target: T1, sCD4 (Homo sapiens, UniProt P01730); experiment: Surface plasmon resonance, papuamide A - sCD4; format: binding
T1 construct: Soluble CD4 (sCD4)
Description: (§2) The expected response at saturation is determined by the following formula: LCR/MWL×MWA , (LCR=Ligand capture response, amount of papuamide A captured onto the biosensor chip; MWL=molecular weight of ligand, papuamide A; and MWA=molecular weight of analyte, the protein or peptide.)[23–26] The observed response, determined by the BIAcore instrument detector in response units (RU), can be lower than the expected response if the concentration of analyte used is below the dissociation constant (KD) concentration value, KD values were calculated by the software from the binding responses obtained with multiple concentrations of analyte. When this is the case, the fold difference in concentration values (KD/concentration of analyte used) is approximately proportionate to the fold difference in responses (expected response/observe response). Therefore, to correct for the expected response at the maximum concentration tested, the expected response at saturation was divided by the fold difference in concentration values to determine the expected response at the maximum value tested.
(§3) Binding interactions were quantified by surface plasmon resonance (SPR). Studies were performed at the University of Utah Protein Interactions facility on a BIAcore 3000 instrument. Briefly, papuamide A was biotinylated using the EZ-Link Sulfo-NHS-LC-LC-Biotin reagent (Pierce Biotechnology, Rockford, IL) with reaction products purified by reverse phase high performance liquid chromatography (HPLC). Biotinylation was confirmed by mass spec and presumed to target the free amine of the 2,3-diaminobutenoic acid. Biotinylated papuamide A was captured onto a chip with a carboxymethylated dextran matrix preimmobilized with streptavidin. Analytes were then flowed over the chip in hepes buffered saline (HBS) running buffer containing 1 mg/mL bovine serum albumin to reduce nonspecific binding. […] Data analyzed using the SCRUBBER software, developed by the University of Utah Protein Interactions Facility.

gp120 = gp120 (Human immunodeficiency virus type 1 group M subtype B, UniProt P03375); experiment: Surface plasmon resonance, papuamide A - gp120; format: binding, HIV
Description: as §2, §3

[6] = Surface plasmon resonance, papuamide A - positive control peptide; format: binding
Description: as §2
Binding interactions were quantified by surface plasmon resonance (SPR). Studies were performed at the University of Utah Protein Interactions facility on a BIAcore 3000 instrument. […] Data analyzed using the SCRUBBER software, developed by the University of Utah Protein Interactions Facility.

[7] = test system: pseudotype virus expressing LAI (X4 tropic) envelope, CEM-SS cells; format: cell-based, HIV; conditions: 178 nM (Fig. 4; text 174nM); flow cytometry of GFP, 48 h; n≥3
[8] = test system: pseudotype virus expressing JRFL (R5 tropic) envelope, CEM.NKR-CCR5 cells; format: cell-based, HIV; conditions: 178 nM (Fig. 4; text 174nM); flow cytometry of GFP, 48 h; n≥3
[9] = test system: pseudotype virus expressing vesicular stomatitis virus (VSV) envelope glycoprotein, CEM-SS cells; format: cell-based, HIV pseudotyped with vesicular stomatitis virus envelope; conditions: n≥3
[10] = test system: pseudotype virus expressing amphotropic murine leukemia virus (aMLV) envelope glycoprotein, CEM-SS cells; format: cell-based; conditions: 178 nM (Fig. 4; text 174nM); flow cytometry of GFP, 48 h; n≥3
[11] = test system: NL4-3 BlaM-Vpr virus entry, HeLa T4 cells; experiment: Papuamide A preincubation in virion fusion assay; format: cell-based, HIV-1; conditions: 178 nM (Fig. 6a) or 710 nM (method), n≥3
Description: HeLa T4 cells were infected with NL4-3 BlaM virus and treated with 710 nM papuamide A, following these three protocols: Virus pretreated with papuamide A for 30 minutes at room temperature prior to dilution and addition to the cells; Cells pretreated with papuamide A for 2 hours followed by aspiration of papuamide A containing medium and addition of virus; Virus and papuamide A added to the cells at the same time.

[12] = test system: VSV-G pseudotype virus, CEM-SS cells; format: cell-based, HIV pseudotyped with vesicular stomatitis virus envelope; conditions: n≥3
[13] = test system: 20% phosphatidylserine / 80% phosphatidylcholine vesicles; experiment: Surface plasmon resonance, PS:PC vesicle binding; conditions: 20% PS, 80% PC vesicles; data not shown
Description: (§4) Papuamide A’s ability to bind to phosphatidylserine was observed using surface plasmon resonance. Twenty percent phosphatidylserine and 80% phosphatidylcholine (PC) vesicles were tested alongside 100% PC vesicles. […] This indicates there is a preferential binding of papuamide A to phosphatidylserine. To determine if binding of PS alone was sufficient to inhibit viral entry, annexin V (AV) was tested in the virion based fusion assay.

[14] = test system: 100% phosphatidylcholine (PC) vesicles; experiment: Surface plasmon resonance, PC vesicle binding; conditions: 100% PC vesicles; data not shown
Description: as §4

[15] = test system: DHIV-3 pseudotype virus expressing IIINL4 envelope, CEM-SS cells; format: cell-based, HIV; conditions: papuamide A 178 nM with annexin V 0.1 μM; n=3
[16] = test system: viral infection of cells preincubated overnight; experiment: Overnight preincubation of cells with papuamide A; format: cell-based, HIV; conditions: data not shown
[17] = test system: pseudotype virus infection; format: cell-based, HIV; conditions: 174nM papuamide A; flow cytometry of GFP; data not shown
HIV T cell infection = conditions: binding of PS by Annexin V; cited from earlier work
From the text: as §1

[18] = test system: HIV infection of monocyte and macrophage; conditions: binding of PS by Annexin V; cited from earlier work
From the text: as §1

Cc1cn([C@H]2C[C@H](N=[N+]=[N-])[C@@H](CO)O2)c(=O)[nH]c1=O [AZT, azidothymidine]
inhibition of viral entry ([1]; AZT at 18 μM, fluorescence ratio): did not prevent viral entry | effect of delayed addition, 1 hour ([2]; C34 233 nM or AZT 3.7 μM added 1 hour after virus): no difference in activity | effect of delayed addition, 2 hours ([2]; C34 233 nM or AZT 3.7 μM added 2 hours after virus): only a minor loss of activity

papuamide B
binding to and leakage of liposomes [3]: not those composed solely of phosphatidylcholine | binding to and leakage of liposomes [4]: bind to and cause leakage of phosphatidylserine (PS) containing liposomes | inhibition of viral entry ([5]; 710 nM, NL(AD8), n≥4): approximately 80%

CCC(C)/C=C(C)/C=C\C(O)C(C)(O)C(=O)NCC(=O)N[C@H](C(=O)N[C@H](C(=O)N[C@H](C(=O)N[C@@H]1C(=O)N[C@H](COC)C(=O)NCC(=O)N[C@@H](C)C(=O)N(C)[C@@H]([C@@H](C)O)C(=O)N[C@H]([C@H](OC)c2ccc(O)cc2)C(=O)N2CCCC[C@H]2C(=O)O[C@@H]1C(C)C)[C@@H](C)[C@@H](C)C(N)=O)C(C)NC(=O)CCCCCNC(=O)CCCCCNC(=O)CCCC[C@@H]1SC[C@@H]2NC(=O)N[C@@H]21)[C@@H](C)O (stereo partly drawn) [papuamide A] (X1-GT[X2]([Ahx-Ahx-Biotin])[Gln(3S,4R-Me2)][X3][dS](Me)GA[NMeT][dTyr(βR-OMe)][Pip]; ester 5-C)
inhibition of viral entry ([1]; 710 nM papuamide A, 2 h infection, blue/green fluorescence ratio): approximately 80% | inhibition of X4 and R5 virus entry, papuamide A alongside annexin V ([1]; Fig. 7a, X4 (NL4-3)): remained active | observed response lower than calculated expected response (sCD4; at maximum sCD4 concentration tested): 600 times lower | Fold Difference of Responses (sCD4; expected response at saturation / observed response, sCD4): 974 | SPR binding response significance (sCD4; sCD4): determined not to be significant | observed response lower than calculated expected response (gp120; at maximum gp120 concentration tested): 54 times lower | Fold Difference of Responses (gp120; expected response at saturation / observed response, gp120): 1284 | SPR binding response significance (gp120; gp120): determined not to be significant | SPR interaction with positive control peptide [6]: shown to interact with a positive control binding peptide | Kd ([6]; calculated by software from binding responses at multiple peptide concentrations, max 5 μM, biotinylated papuamide A captured on chip): 176 µM | inhibition of infection [7]: inhibits infection | inhibition of infection [8]: inhibits infection | inhibition of infection [9]: effectively inhibited infection | inhibition of infection [10]: effectively inhibited infection | inhibition of viral entry after cell pretreatment ([11]; cells incubated with papuamide A 2 hours, removed, two washes, then infected): did not result in inhibition of viral entry | inhibition after virus pretreatment ([11]; virus pretreated 30 minutes then diluted): rate of inhibition similar to when papuamide A was added at the same time as virus | decreased infectivity, pretreated versus simultaneous addition ([12]; 178 nM): the same as that observed when papuamide A was added to cells at the same time as VSV-G pseudotype virus | decreased infectivity after virus pretreatment [12]: ~50% | SPR vesicle binding [13]: exhibited binding to papuamide A | SPR vesicle binding [14]: did not | effect of papuamide A in presence of annexin V [15]: unchanged in the presence of AV | inhibition of infection after overnight cell preincubation [16]: failed to inhibit viral infection | inhibition of infection [17]: approximately 50% | inhibition of R5 tropic virus entry ([5]; 710-43.4 nM, n≥3): effectively inhibited the entry of the R5 tropic virus in a dose dependant manner | inhibition of X4 and R5 virus entry, papuamide A alongside annexin V ([5]; Fig. 7a, R5 (NL(AD8)), n≥4): remained active

B1: annexin V: a specific binder of PS (protein, UniProt P08758 2-320, looked up)
Annexin A5: AQVLRGTVTDFPGFDERADAETLRKAMKGLGTDEESILTLLTSRSNAQRQEISAAFKTLFGRDLLDDLKSELTGKFEKLIVALMKPSRLYDAYELKHALKGAGTNEKVLTEIIASRTPEELRAIKQVYEEEYGSSLEDDVVGDTSGYYQRMLVVLLQANRDPDAGIDEAQVEQDAQALFQAGELKWGTDEEKFITIFGTRSVSHLRKVFDKYMTISGFQIEETIDRETSGNLEQLLLAVVKSIRSIPAYLAETLYYAMKGAGTDDHTLIRVMVSRSEIDLFNIRKEFRKNFATSLYSMIKGDTSGDYKKALLLLCGEDD
inhibition of X4 virus entry ([1]; annexin V at concentrations similar to and higher than that shown to inhibit HIV infection, NL4-3): did not have any inhibitory effect | inhibition of infection (HIV T cell infection): not T cell infection | inhibition of infection [18]: able to inhibit monocyte and macrophage infection | inhibition of R5 virus entry ([5]; annexin V at concentrations similar to and higher than that shown to inhibit HIV infection, NL(AD8), n≥4): did not have any inhibitory effect
